The NIST ThermoML archive (doi:10.1016/j.jct.2018.01.025)

Details: Liquid; for mass density: Vibrating tube method

CCCC[N+](C)(C)C.O=S(=O)([N-]S(=O)(=O)C(F)(F)F)C(F)(F)F [butyltrimethylammonium bis(trifluoromethylsulfonyl)imide]
Details	viscosity [mPa·s]
278.15 K, 101.33 kPa, Concentric cylinders viscometry	360.1
283.15 K, 101.33 kPa, Concentric cylinders viscometry	253.8
288.15 K, 101.33 kPa, Concentric cylinders viscometry	184.7
293.15 K, 101.33 kPa, Concentric cylinders viscometry	138.3
298.15 K, 101.33 kPa, Concentric cylinders viscometry	105.4
298.6 K, 101.33 kPa, Vibrating wire viscometry	102.17
301.53 K, 101.33 kPa, Vibrating wire viscometry	87.01
303.15 K, 101.33 kPa, Concentric cylinders viscometry	82.19
303.15 K, 10000 kPa, Falling or rolling sphere viscometry	93.4
303.15 K, 15000 kPa, Falling or rolling sphere viscometry	99.9
303.15 K, 25000 kPa, Falling or rolling sphere viscometry	114
303.15 K, 50000 kPa, Falling or rolling sphere viscometry	158.2
303.15 K, 75000 kPa, Falling or rolling sphere viscometry	218.5
303.15 K, 100000 kPa, Falling or rolling sphere viscometry	300.8
303.15 K, 125000 kPa, Falling or rolling sphere viscometry	413.1
303.15 K, 150000 kPa, Falling or rolling sphere viscometry	566.6
304.45 K, 101.33 kPa, Vibrating wire viscometry	76.4
307.33 K, 101.33 kPa, Vibrating wire viscometry	66.1
308.15 K, 101.33 kPa, Concentric cylinders viscometry	65.33
310.28 K, 101.33 kPa, Vibrating wire viscometry	58.41
313.15 K, 101.33 kPa, Concentric cylinders viscometry	53.01
313.15 K, 10000 kPa, Falling or rolling sphere viscometry	59.7
313.15 K, 15000 kPa, Falling or rolling sphere viscometry	63.7
313.15 K, 25000 kPa, Falling or rolling sphere viscometry	72.4
313.15 K, 50000 kPa, Falling or rolling sphere viscometry	98.5
313.15 K, 75000 kPa, Falling or rolling sphere viscometry	132.2
313.15 K, 100000 kPa, Falling or rolling sphere viscometry	175.9
313.15 K, 125000 kPa, Falling or rolling sphere viscometry	232.5
313.15 K, 150000 kPa, Falling or rolling sphere viscometry	306
313.34 K, 101.33 kPa, Vibrating wire viscometry	50.51
318.15 K, 101.33 kPa, Concentric cylinders viscometry	43.22
323.15 K, 101.33 kPa, Concentric cylinders viscometry	35.9
323.15 K, 10000 kPa, Falling or rolling sphere viscometry	40.1
323.15 K, 15000 kPa, Falling or rolling sphere viscometry	42.6
323.15 K, 25000 kPa, Falling or rolling sphere viscometry	47.9
323.15 K, 50000 kPa, Falling or rolling sphere viscometry	63.5
323.15 K, 75000 kPa, Falling or rolling sphere viscometry	83.6
323.15 K, 100000 kPa, Falling or rolling sphere viscometry	109.1
323.15 K, 125000 kPa, Falling or rolling sphere viscometry	142
323.15 K, 150000 kPa, Falling or rolling sphere viscometry	183.4
323.33 K, 101.33 kPa, Vibrating wire viscometry	35.59
328.15 K, 101.33 kPa, Concentric cylinders viscometry	30.18
328.27 K, 101.33 kPa, Vibrating wire viscometry	29.72
333.15 K, 101.33 kPa, Concentric cylinders viscometry	25.64
333.15 K, 10000 kPa, Falling or rolling sphere viscometry	28.2
333.15 K, 15000 kPa, Falling or rolling sphere viscometry	29.8
333.15 K, 25000 kPa, Falling or rolling sphere viscometry	33.3
333.15 K, 50000 kPa, Falling or rolling sphere viscometry	43.4
333.15 K, 75000 kPa, Falling or rolling sphere viscometry	56.1
333.15 K, 100000 kPa, Falling or rolling sphere viscometry	71.9
333.15 K, 125000 kPa, Falling or rolling sphere viscometry	91.8
333.15 K, 150000 kPa, Falling or rolling sphere viscometry	116.8
338.15 K, 101.33 kPa, Concentric cylinders viscometry	22.02
343.15 K, 101.33 kPa, Concentric cylinders viscometry	19.08
343.15 K, 10000 kPa, Falling or rolling sphere viscometry	21
343.15 K, 15000 kPa, Falling or rolling sphere viscometry	22
343.15 K, 25000 kPa, Falling or rolling sphere viscometry	24.3
343.15 K, 50000 kPa, Falling or rolling sphere viscometry	31
343.15 K, 75000 kPa, Falling or rolling sphere viscometry	39.5
343.15 K, 100000 kPa, Falling or rolling sphere viscometry	50.3
343.15 K, 125000 kPa, Falling or rolling sphere viscometry	63.8
343.15 K, 150000 kPa, Falling or rolling sphere viscometry	81
348.15 K, 101.33 kPa, Concentric cylinders viscometry	16.65
353.15 K, 101.33 kPa, Concentric cylinders viscometry	14.74
353.15 K, 10000 kPa, Falling or rolling sphere viscometry	15.6
353.15 K, 15000 kPa, Falling or rolling sphere viscometry	16.5
353.15 K, 25000 kPa, Falling or rolling sphere viscometry	18.3
353.15 K, 50000 kPa, Falling or rolling sphere viscometry	23.4
353.15 K, 75000 kPa, Falling or rolling sphere viscometry	29.4
353.15 K, 100000 kPa, Falling or rolling sphere viscometry	36.6
353.15 K, 125000 kPa, Falling or rolling sphere viscometry	45.3
353.15 K, 150000 kPa, Falling or rolling sphere viscometry	55.7
358.15 K, 101.33 kPa, Concentric cylinders viscometry	12.99
363.15 K, 101.33 kPa, Concentric cylinders viscometry	11.58
368.15 K, 101.33 kPa, Concentric cylinders viscometry	10.38
373.15 K, 101.33 kPa, Concentric cylinders viscometry	9.36

101.33 kPa
Details	mass density [kg/m3]
278.15 K	1411.5
283.15 K	1406.6
288.15 K	1401.9
293.15 K	1397.2
298.15 K	1392.8
303.15 K	1388.4
308.15 K	1384
313.15 K	1379.7
318.15 K	1375.4
323.15 K	1371.1
328.15 K	1366.8
333.15 K	1362.6
338.15 K	1358.4
343.15 K	1354.2
348.15 K	1350
353.15 K	1345.7
358.15 K	1341.4
363.15 K	1336.8
368.15 K	1332.5
373.15 K	1328.4
